Columns and labels:
[1] = test system: NFAT signaling pathway in Jurkat NFAT reporter cells; assay: Jurkat NFAT reporter assay; assay type: cell-based; details: Homo sapiens, 30 min with compound, then soluble anti-human CD3/CD28 antibody for 6 hours, luciferase readout, read-out: EC50 (Group)
Protocol: A human T lymphocyte Jurkat reporter cell line was further used to assess activation of the nuclear factor of activated T-cells (NFAT) signaling pathway by Cbl-b inhibitors. The reporter cell line is a genetically engineered Jurkat T cell line that expresses a luciferase reporter driven by an NFAT-response element (NFAT-RE). The Cbl-b inhibitor was incubated with 1×10^5 Jurkat NFAT reporter cells per well for 30 minutes. Subsequently, cells were stimulated with soluble anti-human CD3/CD28 antibody for 6 hours resulting in NFAT-RE-mediated luminescence. The bioluminescent signal is detected and quantified using Bio-Glo™ Luciferase Assay System. Readouts were reported as fold change over baseline. Here, baseline was the measurement obtained from Jurkat NFAT reporter cells stimulated with anti-CD3 antibody and anti-CD28 antibody, where the cells were not incubated with a Cbl-b inhibitor.

[2] = molecular target: T1, human recombinant CBL-b (human Biotin CBL-b recombinant protein a.a. 39-426) (Homo sapiens, UniProt Q13191); assay: Biochemical assay for CBL-b inhibition (ligand displacement TR-FRET); assay type: binding; details: 50 nM CBL-b, 0.3 μM Bodipy FL-Probe, read-out: IC50 (CBL-b inhibition, group)
T1 construct: human Biotin CBL-b recombinant protein a.a; 39-426; Biotin (biotinylated); made in house
How it was run: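 Ligand-displacement TR-FRET: 0.3 μM Bodipy FL probe competes with compound for 50 nM biotin-CBL-b (aa 39-426) after a 60 min RT compound pre-incubation; terbium-streptavidin detection, 60 min each step. Dose-response sigmoidal fitting gave IC50 and % maximum inhibition.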

T1 sequence (Q13191 39-426): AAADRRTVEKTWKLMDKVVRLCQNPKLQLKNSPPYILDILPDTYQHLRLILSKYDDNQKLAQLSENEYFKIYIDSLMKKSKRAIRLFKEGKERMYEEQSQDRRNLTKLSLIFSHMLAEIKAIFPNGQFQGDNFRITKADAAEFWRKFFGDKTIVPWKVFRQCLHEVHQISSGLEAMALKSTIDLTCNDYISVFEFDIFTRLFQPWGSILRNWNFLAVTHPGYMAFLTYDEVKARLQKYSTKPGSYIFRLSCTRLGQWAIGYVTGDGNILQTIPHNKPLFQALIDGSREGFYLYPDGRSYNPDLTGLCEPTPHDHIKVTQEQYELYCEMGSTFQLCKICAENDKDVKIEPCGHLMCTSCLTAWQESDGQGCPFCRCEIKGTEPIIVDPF

| EC50 [1] | IC50 [2] | SMILES |
| --- | --- | --- |
| < 300 nM | < 80 nM | CC(NCC1CCC1)c1cc(Cl)nc(N2Cc3ccc(C4(Cc5nncn5C)COC4)cc3C2=O)c1 (single isomer, unassigned) [Compound 213, 2-(6-Chloro-4-(1-((cyclobutylmethyl)amino)ethyl)pyridin-2-yl)-6-(3-((4-methyl-4H-1,2,4-triazol-3-yl)methyl)oxetan-3-yl)isoindolin-1-one] |
| 300 to 1000 nM | < 80 nM | C[C@H](NCc1cscn1)c1cc(Cl)nc(N2Cc3ccc(C4(Cc5nncn5C)COC4)cc3C2=O)c1 (single isomer, unassigned) [Compound 218] |
| < 300 nM | < 80 nM | C[C@@H](NC[C@@H]1CCCO1)c1cc(Cl)nc(N2Cc3ccc(C4(Cc5nncn5C)COC4)cc3C2=O)c1 (single isomer, unassigned) [Compound 219] |
| < 300 nM | < 80 nM | C[C@@H](NCC1CC(F)(F)C1)c1cc(Cl)nc(N2Cc3ccc(C4(Cc5nncn5C)COC4)cc3C2=O)c1 (single isomer, unassigned) [Compound 221] |
| < 300 nM | < 80 nM | C[C@H](NCC1CC(F)(F)C1)c1cc(Cl)nc(N2Cc3ccc(C4(Cc5nncn5C)COC4)cc3C2=O)c1 (single isomer, unassigned) [Compound 222] |
| < 300 nM | < 80 nM | C[C@H](NCc1cc(Cl)nc(N2Cc3ccc(C4(Cc5nncn5C)COC4)cc3C2=O)c1)C1CC1 (single isomer, unassigned) [Compound 223] |
| 300 to 1000 nM | < 80 nM | C[C@@H](NCc1cc(Cl)nc(N2Cc3ccc(C4(Cc5nncn5C)COC4)cc3C2=O)c1)C1CC1 (single isomer, unassigned) [Compound 224] |
| < 300 nM | < 80 nM | C[C@H](NC1CCCC1)c1cc(Cl)nc(N2Cc3ccc(C4(Cc5nncn5C)COC4)cc3C2=O)c1 (single isomer, unassigned) [Compound 231] |
| < 300 nM | < 80 nM | C[C@@H](NC1CCCC1)c1cc(Cl)nc(N2Cc3ccc(C4(Cc5nncn5C)COC4)cc3C2=O)c1 (single isomer, unassigned) [Compound 232] |
| < 300 nM | < 80 nM | Cn1cnnc1C[C@]1(c2ccc3c(c2)C(=O)N(c2cc(CNCC4CC4)cc(Cl)n2)C3)C[C@H](C#N)C1 (single isomer, unassigned) [Compound 233, (1r,3r)-3-(2-(6-Chloro-4-(((cyclopropylmethyl)amino)methyl)pyridin-2-yl)-3-oxoisoindolin-5-yl)-3-((4-methyl-4H-1,2,4-triazol-3-yl)methyl)cyclobutane-1-carbo-nitrile] |
| 1000 to 10000 nM | < 80 nM | Cn1cnnc1C[C@]1(c2ccc3c(c2)C(=O)N(c2cc(CNCC4CC4)cc(Cl)n2)C3)C[C@@H](C#N)C1 (single isomer, unassigned) [Compound 234, (1s,3s)-3-(2-(6-Chloro-4-(((cyclopropylmethyl)amino)methyl)pyridin-2-yl)-3-oxoisoindolin-5-yl)-3-((4-methyl-4H-1,2,4-triazol-3-yl)methyl)cyclobutane-1-carbonitrile] |
| < 300 nM | < 80 nM | C[C@H](N[C@H](C)c1cc(Cl)nc(N2Cc3ccc(C4(Cc5nncn5C)COC4)cc3C2=O)c1)C1CC1 (single isomer, unassigned) [Compound 239] |
| < 300 nM | < 80 nM | C[C@H](N[C@H](C)C1CC1)c1cc(Cl)nc(N2Cc3ccc(C4(Cc5nncn5C)COC4)cc3C2=O)c1 (single isomer, unassigned) [Compound 240] |
| < 300 nM | < 80 nM | Cn1cnnc1C[C@]1(c2ccc3c(c2)C(=O)N(c2cc(CNCC4CCC4)cc(Cl)n2)C3)C[C@H](C#N)C1 (single isomer, unassigned) [Compound 244, (1r,3r)-3-(2-(6-Chloro-4-(((cyclobutylmethyl)amino)methyl)pyridin-2-yl)-3-oxoisoindolin-5-yl)-3-((4-methyl-4H-1,2,4-triazol-3-yl)methyl)cyclobutane-1-carbonitrile] |
| < 300 nM | < 80 nM | C[C@H](N[C@@H](C)C1CC1)c1cc(Cl)nc(N2Cc3ccc(C4(Cc5nncn5C)COC4)cc3C2=O)c1 (single isomer, unassigned) [Compound 246] |
| 1000 to 10000 nM | < 80 nM | C[C@H]1CCCN(Cc2cc(F)cc(N3Cc4ccc(C5(Cc6nncn6C)COC5)cc4C3=O)c2)C1 [Compound 3, (S)-2-(3-Fluoro-5-((3-methylpiperidin-1-yl)methyl)phenyl)-6-(3-((4-methyl-4H-1,2,4-triazol-3-yl)methyl)oxetan-3-yl)isoindolin-1-one] |
| 1000 to 10000 nM | 80 to 300 nM | COc1cc(CN2CCC[C@H](C)C2)cc(N2Cc3ccc(C4(Cc5nncn5C)COC4)cc3C2=O)c1 [Compound 5, (S)-2-(3-Methoxy-5-((3-methylpiperidin-1-yl)methyl)phenyl)-6-(3-((4-methyl-4H-1,2,4-triazol-3-yl)methyl)oxetan-3-yl)isoindolin-1-one] |
| 300 to 1000 nM | 80 to 300 nM | C[C@H]1CCCN(Cc2cc(C3CC3)cc(N3Cc4ccc(C5(Cc6nncn6C)COC5)cc4C3=O)c2)C1 [Compound 7, (S)-2-(3-Cyclopropyl-5-((3-methylpiperidin-1-yl)methyl)phenyl)-6-(3-((4-methyl-4H-1,2,4-triazol-3-yl)methyl)oxetan-3-yl)isoindolin-1-one] |
| 1000 to 10000 nM | 300 to 5000 nM | C[C@H]1CCCN(Cc2cccc(N3Cc4ccc(C5(Cc6nncn6C)COC5)cc4C3=O)c2)C1 [Compound 8, (S)-6-(3-((4-Methyl-4H-1,2,4-triazol-3-yl)methyl)oxetan-3-yl)-2-(3-((3-methyl-piperidin-1-yl)methyl)phenyl)isoindolin-1-one] |
| 300 to 1000 nM | 80 to 300 nM | C=Cc1cc(CN2CCC[C@H](C)C2)cc(N2Cc3ccc(C4(Cc5nncn5C)COC4)cc3C2=O)c1 [Compound 9, (S)-6-(3-((4-Methyl-4H-1,2,4-triazol-3-yl)methyl)oxetan-3-yl)-2-(3-((3-methyl-piperidin-1-yl)methyl)-5-vinylphenyl)isoindolin-1-one] |
| < 300 nM | < 80 nM | C[C@H]1CCCN(Cc2cc(Br)cc(N3Cc4ccc(C5(Cc6nncn6C)COC5)cc4C3=O)c2)C1 [Compound 10, (S)-2-(3-Bromo-5-((3-methylpiperidin-1-yl)methyl)phenyl)-6-(3-((4-methyl-4H-1,2,4-triazol-3-yl)methyl)oxetan-3-yl)isoindolin-1-one] |
| 1000 to 10000 nM | 80 to 300 nM | Cn1cnnc1CC1(c2ccc3c(c2)C(=O)N(c2cc(CNCC4CC4)cc(C(F)(F)F)c2)C3)COC1 [Compound 13, 2-(3-(((Cyclopropylmethyl)amino)methyl)-5-(trifluoromethyl)phenyl)-6-(3-((4-methyl-4H-1,2,4-triazol-3-yl)methyl)oxetan-3-yl)isoindolin-1-one] |
| 1000 to 10000 nM | 300 to 5000 nM | C[C@H]1CCCN(Cc2cc(N3CCCCC3)cc(N3Cc4ccc(C5(Cc6nncn6C)COC5)cc4C3=O)c2)C1 [Compound 14, (S)-6-(3-((4-Methyl-4H-1,2,4-triazol-3-yl)methyl)oxetan-3-yl)-2-(3-((3-methyl-piperidin-1-yl)methyl)-5-(piperidin-1-yl)phenyl)isoindolin-1-one] |
| 300 to 1000 nM | 80 to 300 nM | CC(C)c1cc(CN2CCC[C@H](C)C2)cc(N2Cc3ccc(C4(Cc5nncn5C)COC4)cc3C2=O)c1 [Compound 15, (S)-2-(3-Isopropyl-5-((3-methylpiperidin-1-yl)methyl)phenyl)-6-(3-((4-methyl-4H-1,2,4-triazol-3-yl)methyl)oxetan-3-yl)isoindolin-1-one] |
| 300 to 1000 nM | 80 to 300 nM | C[C@H]1CCCN(Cc2cc(N3Cc4ccc(C5(Cc6nncn6C)COC5)cc4C3=O)cc(C(C)(C)C)c2)C1 [Compound 16, (S)-2-(3-(tert-Butyl)-5-((3-methylpiperidin-1-yl)methyl)phenyl)-6-(3-((4-methyl-4H-1,2,4-triazol-3-yl)methyl)oxetan-3-yl)isoindolin-1-one] |
| 1000 to 10000 nM | 300 to 5000 nM | C[C@H]1CCCN(Cc2cc(N3Cc4ccc(C5(Cc6nncn6C)COC5)cc4C3=O)cc(C(F)(F)F)n2)C1 [Compound 17, (S)-6-(3-((4-Methyl-4H-1,2,4-triazol-3-yl)methyl)oxetan-3-yl)-2-(2-((3-methyl-piperidin-1-yl)methyl)-6-(trifluoromethyl)pyridin-4-yl)isoindolin-1-one] |
| 1000 to 10000 nM | < 80 nM | Cc1cc(CNCC2CC2)cc(N2Cc3ccc(C4(Cc5nncn5C)COC4)cc3C2=O)c1 [Compound 18, 2-(3-(((Cyclopropylmethyl)amino)methyl)-5-methylphenyl)-6-(3-((4-methyl-4H-1,2,4-triazol-3-yl)methyl)oxetan-3-yl)isoindolin-1-one] |
| 300 to 1000 nM | < 80 nM | Cc1cc(CNCCC(F)(F)F)cc(N2Cc3ccc(C4(Cc5nncn5C)COC4)cc3C2=O)c1 [Compound 19, 6-(3-((4-Methyl-4H-1,2,4-triazol-3-yl)methyl)oxetan-3-yl)-2-(3-methyl-5-(((3,3,3-trifluoropropyl)amino)methyl)phenyl)isoindolin-1-one] |
